Data on four compounds can be found in publication doi:10.1101/2025.01.28.635346v1 (bioRxiv, 2025).

Experiment [1] has as its target T1, integrin αvβ6 (Homo sapiens, UniProt P06756+P18564). The experiment can be described thus: ELISA competition assay, integrin αvβ6 binding to LAP.
A further experiment has as its target T2, Mouse αvβ6 (Mus musculus, UniProt P43406+Q9Z0T9).
T2 sequence (P43406 31-988 limits assumed): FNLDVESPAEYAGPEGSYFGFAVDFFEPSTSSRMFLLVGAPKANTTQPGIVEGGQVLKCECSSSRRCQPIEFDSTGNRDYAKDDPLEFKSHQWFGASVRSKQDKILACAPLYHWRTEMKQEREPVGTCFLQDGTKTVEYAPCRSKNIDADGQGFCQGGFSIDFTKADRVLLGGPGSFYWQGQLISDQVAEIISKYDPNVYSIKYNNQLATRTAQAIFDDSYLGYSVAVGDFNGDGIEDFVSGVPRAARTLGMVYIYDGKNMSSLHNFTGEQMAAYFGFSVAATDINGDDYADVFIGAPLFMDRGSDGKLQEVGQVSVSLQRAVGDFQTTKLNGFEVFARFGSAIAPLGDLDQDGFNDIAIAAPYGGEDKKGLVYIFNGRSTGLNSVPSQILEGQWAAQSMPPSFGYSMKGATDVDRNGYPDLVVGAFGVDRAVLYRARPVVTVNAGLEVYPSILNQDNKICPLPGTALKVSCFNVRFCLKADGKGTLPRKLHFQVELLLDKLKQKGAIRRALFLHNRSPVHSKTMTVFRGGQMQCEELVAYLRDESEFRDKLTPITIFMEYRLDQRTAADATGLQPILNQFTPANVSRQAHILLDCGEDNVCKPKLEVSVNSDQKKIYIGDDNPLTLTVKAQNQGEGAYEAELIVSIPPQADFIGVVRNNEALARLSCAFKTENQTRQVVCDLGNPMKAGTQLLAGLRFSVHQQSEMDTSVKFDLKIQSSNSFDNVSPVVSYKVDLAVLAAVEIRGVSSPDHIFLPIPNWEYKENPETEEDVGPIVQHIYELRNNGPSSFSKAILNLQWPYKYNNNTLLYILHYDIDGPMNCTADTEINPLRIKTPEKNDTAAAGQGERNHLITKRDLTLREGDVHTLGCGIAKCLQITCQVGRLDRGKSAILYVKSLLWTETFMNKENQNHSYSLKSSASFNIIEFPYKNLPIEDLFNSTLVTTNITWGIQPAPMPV
T2 sequence (Q9Z0T9 22-707 limits assumed): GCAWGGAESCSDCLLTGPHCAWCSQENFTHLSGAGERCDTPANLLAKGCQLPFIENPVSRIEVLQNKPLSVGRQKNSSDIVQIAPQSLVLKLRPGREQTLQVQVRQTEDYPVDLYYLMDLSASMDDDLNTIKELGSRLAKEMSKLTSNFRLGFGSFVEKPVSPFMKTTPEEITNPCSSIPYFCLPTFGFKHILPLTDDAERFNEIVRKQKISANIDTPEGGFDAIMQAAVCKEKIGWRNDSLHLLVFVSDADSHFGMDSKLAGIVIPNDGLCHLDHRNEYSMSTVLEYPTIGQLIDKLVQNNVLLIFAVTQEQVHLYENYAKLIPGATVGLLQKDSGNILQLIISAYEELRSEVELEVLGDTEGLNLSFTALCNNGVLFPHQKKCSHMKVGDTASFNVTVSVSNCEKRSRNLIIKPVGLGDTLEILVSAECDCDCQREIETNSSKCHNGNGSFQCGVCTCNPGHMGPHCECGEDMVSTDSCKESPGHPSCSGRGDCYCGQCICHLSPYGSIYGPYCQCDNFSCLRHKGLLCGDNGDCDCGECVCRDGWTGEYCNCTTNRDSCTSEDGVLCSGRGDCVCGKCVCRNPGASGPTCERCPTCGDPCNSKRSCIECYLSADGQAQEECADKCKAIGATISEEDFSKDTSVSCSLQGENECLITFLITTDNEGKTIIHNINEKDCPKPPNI
The experiment is described as follows: ELISA competition assay, mouse integrin αvβ6. It is filed as binding. (In general: ELISA stands for enzyme-linked immunosorbent assay.)

In experiment [2] the test system is αvβ6/8 vs other RGD-integrins. The experiment can be described thus: Selectivity and potency gain for αvβ6/8, worked out from integrin IC50 values. To be noted: for improvement in potency (IC50) for αvβ6/8 relative to parent lassotide: 24 and 30 vs 14, 35 vs 28, 36 vs 30, 47 vs 36. It is filed as binding, human.
The target of the next experiment is integrin αvβ8 (Homo sapiens, UniProt P06756+P26012). The experiment is described as follows: ELISA competition assay, integrin αvβ8 binding to LAP.
Another experiment addresses integrin αvβ3 (Homo sapiens, UniProt P05106+P06756). The experiment can be described thus: ELISA competition assay, integrin αvβ3. The class given is binding.
The target in experiment [3] is T1, integrin αvβ6. The experiment can be described thus: AlphaLISA competition assay vs LAP, biotinylated αvβ6. It is filed as binding. On the technique in general: Alpha assays give light when donor and acceptor beads are brought close together.
Where [4] appears, read: αvβ6 IC50, ELISA competition vs LAP, mean, n ≥ 3.

Bridge positions count the residues as written; N and C are the ends. Peptide text beside a SMILES is read from it.

As a reminder, the IC50 is the concentration at which inhibition is half-maximal. For `CC[C@H](C)[C@H](NC(=O)[C@H](CC(C)C)NC(=O)[C@H](CC(=O)O)NC(=O)CNC(=O)[C@H](CCCNC(=N)N)NC(=O)[C@@H](NC(=O)[C@H](Cc1ccccc1)NC(=O)[C@H](Cc1ccc(O)cc1)NC(=O)[C@@H]1CCC(=O)NCC(=O)NCC(=O)N[C@@H](CCCNC(=N)N)C(=O)NCC(=O)N[C@@H](Cc2c[nH]cn2)C(=O)N[C@@H](C(C)C)C(=O)N2CCC[C@H]2C(=O)N1)C(C)C)C(=O)N[C@@H](CO)C(=O)N[C@@H](Cc1ccccc1)C(=O)N[C@@H](Cc1ccc(O)cc1)C(=O)NCC(=O)O` [lassotide 30] (GGRGHVPEYFVRGDLISFYG-OH; lactam N-8; C-terminus assumed), the IC50 at integrin αvβ6 [1] (Human αvß6 IC50, ELISA run in triplicate, mean, Table S1) came out at 17 nM; on integrin αvβ6 [1] (setting [4]) it was 30 nM; on Mouse αvβ6 it was 24 nM; on integrin αvβ8 it was 27 nM. Further, in experiment [2], the “improvement in potency (IC50) for αvβ6/8 relative to parent lassotide” value was 3-4 fold.
On to `CC[C@H](C)[C@H](NC(=O)[C@H](CC(C)C)NC(=O)[C@H](CC(=O)O)NC(=O)CNC(=O)[C@H](CCCNC(=N)N)NC(=O)[C@@H](NC(=O)[C@H](Cc1ccccc1)NC(=O)[C@H](Cc1ccc(O)cc1)NC(=O)[C@@H]1CCC(=O)NCC(=O)NCC(=O)N[C@@H](CCCCN)C(=O)NCC(=O)N[C@@H](Cc2c[nH]cn2)C(=O)N[C@@H](C(C)C)C(=O)N2CCC[C@H]2C(=O)N1)C(C)C)C(=O)N[C@@H](CO)C(=O)N[C@@H](Cc1ccccc1)C(=O)N[C@@H](Cc1ccc(O)cc1)C(=O)N[C@@H](CCCCN)C(=O)O` [lassotide 35] (GGKGHVPEYFVRGDLISFYK-OH; lactam N-8; C-terminus assumed), for which the IC50 on integrin αvβ6 [1] (setting [4]) was 25 nM; on integrin αvβ8 it was 36 nM. Also, in experiment [2], the “improvement in potency (IC50) for αvβ6/8 relative to parent lassotide” value is reported as “up to 2 fold”.
With `CC[C@H](C)[C@H](NC(=O)[C@H](CC(C)C)NC(=O)[C@H](CC(=O)O)NC(=O)CNC(=O)[C@H](CCCNC(=N)N)NC(=O)[C@@H](NC(=O)[C@H](Cc1ccccc1)NC(=O)[C@H](Cc1ccc(O)cc1)NC(=O)[C@@H]1CCC(=O)NCC(=O)NCC(=O)N[C@@H](C)C(=O)NCC(=O)N[C@@H](Cc2c[nH]cn2)C(=O)N[C@@H](C(C)C)C(=O)N2CCC[C@H]2C(=O)N1)C(C)C)C(=O)N[C@@H](CO)C(=O)N[C@@H](Cc1ccccc1)C(=O)N[C@@H](Cc1ccc(O)cc1)C(=O)NCC(=O)O` [lassotide 14] (GGAGHVPEYFVRGDLISFYG-OH; lactam N-8; C-terminus assumed), the IC50 on integrin αvβ3 came out at 238 nM; on integrin αvβ6 [1], 84 nM; at integrin αvβ8, 116 nM. Moreover, in experiment [2] (from IC50 values), the “selectivity favoring αvβ6/8 over αvβ3” value is 2-3 fold.
For `CC(C)C[C@H](NC(=O)[C@H](CC(=O)O)NC(=O)CNC(=O)[C@H](CCCNC(=N)N)NC(=O)[C@@H](NC(=O)[C@H](Cc1ccccc1)NC(=O)[C@H](Cc1ccc(O)cc1)NC(=O)[C@@H]1CCC(=O)NCC(=O)NCC(=O)N[C@@H](C)C(=O)NCC(=O)N[C@@H](Cc2c[nH]cn2)C(=O)N[C@@H](C(C)C)C(=O)N2CCC[C@H]2C(=O)N1)C(C)C)C(=O)N[C@@H](CCC(N)=O)C(=O)N[C@@H](CO)C(=O)N[C@@H](Cc1ccccc1)C(=O)N[C@@H](Cc1ccc(O)cc1)C(=O)NCC(=O)O` [lassotide 24] (GGAGHVPEYFVRGDLQSFYG-OH; lactam N-8; C-terminus assumed), the IC50 was 13 nM at integrin αvβ6 [3], 6 nM on integrin αvβ6 [1] and 7 nM on Mouse αvβ6. For the same compound, in experiment [2], the “improvement in potency (IC50) for αvβ6/8 relative to parent lassotide” value is given as “up to 7 fold”.
